Holding throughout (assay): growth of human tumour cells (NCI), 48 h
Assay [1] concerns HL-60(TB) leukemia.
The subject of assay [2] is HOP-92 NSCLC.
Assay [3] concerns MOLT-4 leukemia.
Assay [4] deals with NCI-H460 lung.
Assay [5] deals with OVCAR-3 ovarian.
The test system of assay [6] is SW-620 colon.
Assay [7] has as its system TK-10 renal.
The subject of assay [8] is U251 CNS.
Assay [9] concerns UACC-257 melanoma.
The subject of assay [10] is UO-31 renal.
The subject of assay [11] is SR leukemia.

Structures are written as SMILES.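 Protocol summary: plate cells (96-well), add compound at 5 concentrations, incubate 48 h, interpolate endpoints linearly. At the TGI there is no net growth.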

As to `C/C(=N\Nc1ncnc2ccccc12)c1ccccn1`, the TGI in assay [1] is 10.7 µM; in assay [2] it was 7.75 µM; in assay [3] it was greater than 9.41 µM; in [4] it was 21.2 µM; in assay [5], 12.8 µM; in assay [6], 45.6 µM. In addition, the TGI in [7] was determined as 18.6 µM; in assay [8], 34.4 µM; in [9] it was 8.65 µM; in assay [10], 1.75 µM.

For the molecule `CN(C)Cc1cc(C(=O)/C=C/c2c(F)cccc2Cl)cc(CN(C)C)c1O`, the TGI stood at 8.49 µM in assay [1]; 20.3 µM in assay [2]; 66.1 µM in [3]; 11.8 µM in assay [4]; 24.6 µM in assay [5]; 31.3 µM in assay [6]. Moreover, the TGI was 15.7 µM in [7], 28.9 µM in [8], 24.6 µM in [9] and 18.7 µM in [10].

Turning to `CCCCCCCCC[C@@H]1C[C@@H]2CCC3C(C(=O)OCCCCNC(=O)OCc4ccccc4)=C(C)NC(=N1)N32` (stereo not given in full), the TGI in assay [1] came to 4.01 µM; in assay [2], 7.08 µM; in [3], 6.41 µM; in [4], 13.3 µM; in assay [5] it was 14.9 µM; in assay [6], 14.2 µM. Besides, the TGI came out at 17.7 µM in [7], 10.3 µM in assay [8], 12.2 µM in [9] and 13.7 µM in assay [10].

On to `Cc1ccc(C(=O)NC(C)C)cc1N=NN(C)C`, for which the TGI in assay [2], in [4], in assay [5], in [6], in [7] and in assay [8] was greater than 100 µM in each case. Also, the TGI in assay [9] and in assay [10] was greater than 100 µM each time.

In the case of `Cc1cc(O)c(/C=N/C(=O)NN)c(=O)o1`, the TGI in [2], in assay [3], in assay [4], in assay [5], in [6] and in assay [7] was greater than 100 µM in each case. In addition, the TGI in [8], in assay [9] and in assay [10] was greater than 100 µM in each case.

Turning to `CC[C@@]1(O)C(=O)OCc2c1cc1n(c2=O)Cc2c-1nc1ccccc1c2/C=N\NC(=O)C(N)=O`, the TGI in assay [1] was greater than 100 µM; in assay [2], 12.9 µM; in [3], greater than 23.7 µM; in assay [4], 29.9 µM; in [5] it was greater than 100 µM; in [6], greater than 100 µM. The TGI in assay [7] was greater than 100 µM; in assay [8], 13.6 µM; in assay [9], greater than 100 µM; in [10] it was 12 µM.

Turning to `C[N+](C)(N)Cc1csc(-c2ccc(Cl)cc2)n1`, the TGI in [2], in [4], in assay [5], in assay [11], in assay [6] and in assay [7] was greater than 100 µM each time. In addition, the TGI in [8], in [9] and in assay [10] was greater than 100 µM throughout.

In the case of `COc1cc(C2c3cc4c(cc3OC(N3CCOCC3)C2C)OCO4)cc(OC)c1OC` (stereo not given), the TGI is 60.2 µM in [2]; greater than 38.2 µM in [3]; 10.2 µM in assay [4]; greater than 23 µM in [5]; greater than 100 µM in [11]; greater than 100 µM in [6]. Further, the TGI was 63.9 µM in assay [7], greater than 20.1 µM in assay [8], greater than 59.7 µM in assay [9] and 55.2 µM in [10].

Turning to `O=C(O)C1Cc2ccccc2OC1=O` (stereo not given), the TGI in [3], in assay [4], in assay [5], in [11], in [6] and in [7] was greater than 100 µM each time. For the same molecule, the TGI in assay [8], in assay [9] and in [10] was greater than 100 µM each time.

Regarding `CC(=O)C1C(=O)C(=O)N(c2ccc([N+](=O)[O-])cc2Cl)C1=O` (stereo not given), the TGI in [1], in assay [2], in [3], in [4], in assay [5] and in assay [6] was greater than 100 µM each time. For the same molecule, the TGI in assay [7], in [8], in assay [9] and in [10] was greater than 100 µM throughout.

`FC(F)(F)c1nc2cc(SSc3cc4nc(C(F)(F)F)[nH]c4cc3Cl)c(Cl)cc2[nH]1`: the TGI in assay [1], in assay [3], in [4], in assay [5], in [6] and in assay [7] was greater than 100 µM throughout. For the same molecule, the TGI in [8] and in [9] was greater than 100 µM throughout.

For the molecule `CCCCCCCCCCOC1C(C(C)OCCCN(C)C)OC2OC3(CCCCC3)OC21` (stereo not given), the TGI was 20.7 µM in assay [1]; 16.3 µM in [2]; 30.6 µM in assay [3]; 22.7 µM in [4]; 29.1 µM in assay [5]; 27.1 µM in [6]. Besides, the TGI in assay [7] was determined as 38.6 µM; in assay [8] it was 28.4 µM; in assay [9], 35.5 µM; in assay [10], 31.7 µM.

As to `CCC(C)N1CN(c2ccccc2)C2(CCN(CCCC(=O)c3ccc(F)cc3)CC2)C1=O` (stereo not given), the TGI in assay [1] was found to be 46 µM; in assay [3] it was 23.2 µM; in assay [5] it was 24.8 µM; in [11], 23.3 µM; in assay [6], 16 µM; in assay [7] it was 16.5 µM. For the same molecule, the results for the TGI in [8] and in assay [10] were 16.9 µM and 15.6 µM, respectively.

`OC(C1CCCC1=N/N=C1/CCCC1C(O)(C(F)(F)Cl)C(F)(F)Cl)(C(F)(F)Cl)C(F)(F)Cl` (stereo not given): the TGI in assay [1], in assay [2], in assay [3], in [4], in [5] and in assay [6] was greater than 10 µM each time. Also, the TGI in assay [7], in [8] and in assay [9] was greater than 10 µM each time.
